{
  "source": "patent US20120232162A1",
  "about": "“USE OF LUTEIN CONTAINING COMPOSITIONS TO IMPROVE CERTAIN ASPECTS OF MEMORY” (priority 2009, published 2012)",
  "key": {"[1]": {"test_system": "primary culture of neurons", "assay": "glutamate neurotoxicity paradigm in primary neuron culture (neurofilament network / neurite length)", "type": "cell-based", "details": "lutein pre-treatment from day 5, 3 concentrations, n=6; 250 μM glutamate for 6 hours on day 12; glutamate control set as 100%; p<0.05 and <0.01", "description": "Glutamate is one of the principal excitatory amino acid in the central nervous system, and as such plays a crucial role in normal physiology. Perturbations in normal regulatory mechanisms of glutamate functions may lead to excessive, neurotoxic activation of glutamate receptors in the brain, which may be detrimental to learning and memory performance in the normal and aging brain. Using a primary culture of neurons, these conditions can be reproduced by glutamate intoxication. Impact on cultured neurons was indicated by morphological changes in the neurofilament cytoskeleton network of the neurons.\nNeuroprotective effects of single compounds and combinations of compounds were evaluated by analyzing network density using labelling with an anti-neurofilament antibody (heavy chain 200 kD) specific to mature neuron neurites.\nRiluzole (a pharmacological neuroprotective agent) and MK801 were used as inhibitory compounds counteracting neurotoxic effects of glutamate resulting in outgrowth of neurites. Inhibitory MK801 (complete blockage of NMDA-type glutamate receptors) was powerful and led to 100% recovery after intoxication.\nNeuroprotective functions of lutein were tested using the schedule shown below:\nOn day 5, the culture medium was replaced by control culture medium or medium containing lutein (3 concentrations) within physiological range, n=6 per concentration). […]"}, "mice [2]": {"test_system": "mice", "assay": "IntelliCage side discrimination paradigm (attention, associative learning and memory)", "type": "in vivo", "details": "Lutein 9 mg/kg BW in feed, vs vehicle", "description": "(§1) The cognitive performance of mice treated with lutein and/or zeaxanthin was compared with that of vehicle-treated, age-matched controls in the IntelliCage®, a system which enables automated monitoring of spontaneous and learning behavior of mice in a homecage-like environment (NewBehavior AG, Zurich, Switzerland, www.newbehavior.com; Galsworthy et al. 2005, Behav Brain Res 157: 211-217; Onishchenko et al. 2007, Toxicol Sci 97: 428-437, Mechan et al., 2009, J. Neurosci. Methods, 180:43-51). Individual mice are recognized by sensors within the IntelliCage corners reading a transponder (reference identification tag) which is implanted into the scruff of the mouse's neck.\nEach IntelliCage® is essentially a large cage (37.5×55×20.5 cm), into which is placed a metal frame, comprising four recording (operant) chambers. The recording chambers fit into the corners of the cage, each covering a 15×15×21 cm right-angled triangular area of floor space. […]\nThis module was designed to test attention and associative memory. […] During this module the place errors (i.e. percentage of visits to incorrect corners) and side errors (i.e. percentage of nosepokes at the incorrect side of the correct corner) were recorded."}, "mice [3]": {"test_system": "mice", "assay": "IntelliCage associative memory paradigm (negative reinforcement, stress)", "type": "in vivo", "description": "as §1\n(§2) Each IntelliCage® is essentially a large cage (37.5×55×20.5 cm), into which is placed a metal frame, comprising four recording (operant) chambers. The recording chambers fit into the corners of the cage, each covering a 15×15×21 cm right-angled triangular area of floor space. In-cage antennae enable automatic monitoring of each individual mouse's corner visits; photo-beams within each corner enable automated recording of individual nosepokes and licks of the water bottle spouts. Four triangular mouse shelters are placed in the center of the cage, above which is situated a food hopper, enabling ad libitum access to food.\nEach recording chamber comprises: (1) a plastic ring (30 mm inner diameter) which serves as an entrance into the chamber and houses the circular antenna which registers corner visits; (2) a grid floor, which the mice sit on once they have entered the chamber; (3) two circular openings (13 mm diameter) which enable access to water bottle spouts; each opening is crossed by photo-beams which register nose-pokes; (4) two motorized doors, which allow (door open) or prohibit (door closed) access to the water bottle spouts; (5) two water bottles; (6) tubing, through which air-puffs can be delivered as aversive stimulation; (7) different colored light diodes, which can be used for conditioning experiments (Mechan et al., 2009 J Neurosci Methods 180:43-51). […]"}, "mice [4]": {"test_system": "mice", "assay": "IntelliCage place learning paradigm (spatial learning and memory)", "type": "in vivo", "details": "Lutein 9 mg/kg BW in feed, vs placebo-fed littermates", "description": "as §1\nas §2, with “food. […]” for “food.”"}, "[5]": {"details": "lutein alone; chronic treatment (4 months); WO 2006/116755; cited from earlier work"}, "[6]": {"details": "second set of experiments, younger animals, intermediate lutein dose (of 8, 16 and 30 mg/kg/d), vs control group"}},
  "note": "“Also recorded” adds a separate entry of the source.",
  "data": [
    {"smiles": "CC1=C[C@H](O)CC(C)(C)[C@H]1/C=C/C(C)=C/C=C/C(C)=C/C=C/C=C(C)/C=C/C=C(C)/C=C/C1=C(C)C[C@@H](O)CC1(C)C", "note": "[lutein]", "values": [
      {"measurement": "protection of neurons from excitotoxic glutamate neuro-toxicity (neurite length)", "setting": "[1]", "value": "significantly protected"},
      {"measurement": "side error rate (percentage of nosepokes at the incorrect side of the correct corner)", "setting": "mice [2]; active phase", "value": "significantly lower"},
      {"measurement": "place error rate (percentage of visits to incorrect corners)", "setting": "mice [2]; active phase (first 12 h)", "value": "higher level of attention and an improved memory performance; also recorded: significantly lower"},
      {"measurement": "learning and memorizing the correct place to access water under stressful conditions (air puff punishment)", "setting": "mice [3]; Lutein 9 mg/kg BW in feed, vs vehicle-treated littermates", "value": "significantly better"},
      {"measurement": "performance in the associative memory task, place errors", "setting": "mice [3]; [6]", "value": "significant improvement"},
      {"measurement": "performance in the associative memory task, side errors", "setting": "mice [3]; [6]", "value": "significant improvement"},
      {"measurement": "using spatial cues to find and memorize the location of water", "setting": "mice [4]", "value": "significant improvement; also recorded: significantly better"},
      {"measurement": "Verbal Fluency test", "setting": "[5]", "value": "significant improvement"},
      {"measurement": "other cognitive- or mood assessment-tests", "setting": "[5]", "value": "did not result in improvements"}
    ]}
  ]
}
